In patent US7875601B2, “Cancer treatment with epothilones” (Novartis AG, priority 1998, dated 2011):
Entries after “also recorded” stand apart in the source; their conditions may differ. Marks after values point to notes of the source that are not given here.

What was measured:
[1] = Determination of the single i.v. dose MTD in normal female BALB/c mice; assay type: in vivo
Procedure: The Maximal Tolerated Dose (MTD) is determined according to standard procedures; preferably, in warm-blooded animals the MTD in case of oral or intravenous administration is determined as the Dose of a single administration where no death occurs and a loss of body weight of less than 40, preferably less than 25, percent (%) is found in the treated warm-blooded animal individual (this term here mainly referring to an animal; for humans see below).
For the MTD determination, female BALB/c nude mice or BALB/c mice (obtained from Novartis Animal Farm, Sisseln, Switzerland) are treated once intravenously with epothilone B (n=3 per dose group). The dosage is increased (2, 4, 6, 8, 10 and 12 mg/kg) and the mice are observed for the presentation of overt toxic effects for 10 days after drug treatment.

[2] = tested on: A549 non small cell lung tumors; assay: Antitumor activity on A549 tumors, regimen comparison (Example 7); conditions: for % Regression / % T/C / Delta % Body Weight / Delta Mean Tumor Vol. (mm^3): day 37
Procedure: 3-10 million cells are implanted s.c. into the right axillary (lateral) region of outbred athymic (nu/nu) mice, and are allowed to grow until a tumor volume of approximately 100 mm^3 is established. […] Positive controls are carried out with clinical formulations of TAXOL® diluted 6 fold with D5W and administered i.v. 3×/week.
Antitumor activity is expressed as % T/C (comparing Δ tumor volumes for treatment group to vehicle control group) at the end of the experiment. Regressions are calculated using the formula: −(T/T0−1)×100%, where T is the tumor volume for the treatment group at the end of the experiment, and T0 is the tumor volume at the beginning of the experiment. Statistical significance is evaluated using a one-tailed Student's t-test.

HCT-15 (Colon) = assay: Antiproliferative assay, HCT-15; assay type: cell-based, human; conditions: HCT-15, 5 d exposure, mean ± SD, n = 3; read-out: IC50 for growth inhibition
From the text: (§1) Human colorectal adenocarcinoma cell line HCT-15 (ATCC CCL 225) is from the American Type Culture Collection (Rockville, Md., USA), and the cells are cultivated in vitro as recommended by the supplier. HCT-15 is an epithelial-like cell line. (Cancer Res. 39: 1020-25 [1979]) that is multi-drug resistant by virtue of over-expression of P-glycoprotein (P-gp, gp170, MDR-1;Anticancer Res. 11: 1309-12 [1991]; J. Biol. Chem. 264: 18031-40 [1989]; Int. J. Cancer 1991; 49: 696-703 [1991]) and glutathione-dependent resistance mechanisms (Int. J. Cancer 1991; 49: 688-95 [1991]).
Antiproliferative assays are performed as previously described (Int. J. Cancer 43, 851-6 (1989)). Briefly, cells are seeded at 1.5×10^3 cells/well into 96-well microtiter plates and incubated overnight. Compounds are added in serial dilutions on day 1. The plates are then incubated for an additional 2 to 5 days, allowing for at least one cell doubling (cell line dependent), after which the cells are fixed with 3.3% v/v glutaraldehyde, washed with water and stained with 0.05% w/v methylene blue. After washing, the dye is eluted with 3% v/v HCl and the optical density measured at 665 nm with a SpectraMax 340 (Bucherer, Basel, Switzerland). IC50 values are determined by a computerized system (SoftPro, Bucherer, Basel, Switzerland) using the formula (OD test−OD start)/(OD control−OD start)×100. […]

[3] = tested on: human HCT-15 colon carcinoma; assay: Antitumor effect against s.c. transplanted HCT-15 tumors; assay type: in vivo, female BALB/c nude mice
From the text: as §1
Female or male BALB/c nu/nu (nude) mice are kept under sterile conditions (10 to 12 mice per Type III cage) with free access to food and water. Mice weigh between 20 and 25 grams at the time of tumor implantation. Tumors are established by subcutaneous injection of cells (minimum 2×10^6 cells in 100 μl PBS or medium) in carrier mice (4-8 mice per cell line). The resulting tumors are serially passaged for a minimum of three consecutive transplantations prior to start of treatment. Tumor fragments (approx. 25 mg) are implanted s.c. into the left flank of animals with a 13-gauge trocar needle while the mice are exposed to Forene (Abbott, Switzerland) anesthesia.
Tumor growth and body weights are monitored once or twice weekly. All treatments are administered intravenously (i.v.) and are initiated when a mean tumor volume of approximately 100 to 250 mm^3 is attained, depending upon the tumor type. Tumor volumes are determined using the formula […] (see Cancer Chemother. Pharmacol. 24:148-154, [1989]). Treatments with epothilone B vary the dose and the frequency of administration. Comparator agents are administered according to previously determined optimal treatment regimens. In addition to presenting changes in tumor volumes over the course of treatment, antitumor activity is expressed as T/C % (mean increase of tumor volumes of treated animals divided by the mean increase of tumor volumes of control animals multiplied by 100). Tumor. regression (%) represents the smallest mean tumor volume compared to the mean tumor volume at the start of treatment, according to the formula Regression (%)=(1−Vend/Vstart)×100(Vend=final mean tumor volume, Vstart=mean tumor volume at the start of treatment. Any animals in which the tumor has reached a size exceeding approximately 1.5 to 2.5 cm^3 are sacrificed. Details can be found below.
Tumor volumes are used as the primary indicator of activity of antitumor agents used alone or in combination, and changes in body weights are measured as an indicator of treatment tolerability.

[4] = 2 mg/kg single i.v. bolus, Experiment 2
[5] = 4 mg/kg single i.v. bolus, Experiment 2
[6] = 6 mg/kg single i.v. bolus, Experiment 1
[7] = 6 mg/kg single i.v. bolus, Experiment 2
[8] = 8 mg/kg single i.v. bolus, Experiment 1
[9] = 8 mg/kg single i.v. bolus, Experiment 2
[10] = 10 mg/kg single i.v. bolus, Experiment 1
[11] = 12 mg/kg single i.v. bolus, Experiment 1
[12] = 4 mg/kg, i.v. once on day 14, mean ± SEM

SMILES: C/C(=C\c1csc(C)n1)[C@@H]1C[C@@H]2O[C@]2(C)CCC[C@H](C)[C@H](O)[C@@H](C)C(=O)C(C)(C)[C@@H](O)CC(=O)O1 [epothilone B]
- Body Weight % Change [1, 4]: 12.3 ± 3.0%
- Body Weight Δ (mean g ± SD) [1, 4]: 2.3 ± 0.6 g
- Mortalities [1, 4]: 0/3
- Body Weight % Change [1, 5]: 6.5 ± 2.6%
- Body Weight Δ (mean g ± SD) [1, 5]: 1.3 ± 0.6 g
- Mortalities [1, 5]: 0/3
- Body Weight % Change [1, 6]: −28.6 ± 3.5%
- Body Weight Δ (mean g ± SD) [1, 6]: -6.1 ± 0.9 g
- Mortalities [1, 6]: 1/3
- Body Weight % Change [1, 7]: −27.5 ± 2.1%
- Body Weight Δ (mean g ± SD) [1, 7]: -5.3 ± 0.6 g
- Mortalities [1, 7]: 2/3
- Body Weight % Change [1, 8]: −22.1 ± 13.1%
- Body Weight Δ (mean g ± SD) [1, 8]: -5.1 ± 3.2 g
- Mortalities [1, 8]: 3/3
- Body Weight % Change [1, 9]: −25.3 ± 3.9%
- Body Weight Δ (mean g ± SD) [1, 9]: -5.0 ± 1.0 g
- Mortalities [1, 9]: 3/3
- Body Weight % Change [1, 10]: −24.9 ± 1.6%
- Body Weight Δ (mean g ± SD) [1, 10]: -5.6 ± 0.6 g
- Mortalities [1, 10]: 3/3
- Body Weight % Change [1, 11]: −23.6 ± 11.9%
- Body Weight Δ (mean g ± SD) [1, 11]: -5.4 ± 2.9 g
- Mortalities [1, 11]: 3/3
- MTD ([1]; single dose i.v., normal mice): 4 mg/kg
- Dead/Total ([2]; 0.5 mg/kg i.v. 5x/week): 0/8
- % Regression ([2]; 0.5 mg/kg i.v. 5x/week): none
- % T/C ([2]; 0.5 mg/kg i.v. 5x/week): 41** %
- Delta % Body Weight ([2]; 0.5 mg/kg i.v. 5x/week): −23.1%
- Delta Mean Tumor Vol. (mm^3) ([2]; 0.5 mg/kg i.v. 5x/week): 178 mm^3
- % T/C ([2]; 0.5 mg/kg i.v. 5x/week, listed as Epothilone B): 41%
- body weight loss ([2]; 0.5 mg/kg, 5×/week): 23%
- Dead/Total ([2]; 1.5 mg/kg i.v. 3x/week): 8/8
- Dead/Total ([2]; 1.5 mg/kg i.v. 3x/week, listed as Epothilone B): all animals have to be euthanatized
- body weight loss ([2]; 4 mg/kg administered 1×/week): 13%
- Dead/Total ([2]; 4 mg/kg i.v. 1x/week): 0/8
- % Regression ([2]; 4 mg/kg i.v. 1x/week): none
- % T/C ([2]; 4 mg/kg i.v. 1x/week): 7** %
- Delta % Body Weight ([2]; 4 mg/kg i.v. 1x/week): −13.2%
- Delta Mean Tumor Vol. (mm^3) ([2]; 4 mg/kg i.v. 1x/week): 32 mm^3
- % T/C ([2]; 4 mg/kg i.v. 1x/week, listed as Epothilone B): 7%
- Dead/Total ([2]; 6 mg/kg i.v. once (day 16)): 0/8
- % Regression ([2]; 6 mg/kg i.v. once (day 16)): none
- % T/C ([2]; 6 mg/kg i.v. once (day 16)): 41** %
- Delta % Body Weight ([2]; 6 mg/kg i.v. once (day 16)): +8.5%
- Delta Mean Tumor Vol. (mm^3) ([2]; 6 mg/kg i.v. once (day 16)): 178 mm^3
- % T/C ([2]; 6 mg/kg i.v. once (day 16), listed as Epothilone B): 41%
- IC50 (HCT-15 (Colon)): 0.41 ± 0.15 nM
- Regression ([3]; 4 mg/kg, i.v. once on day 14): −61%
- Survival (No. alive/total) ([3]; 4 mg/kg, i.v. once on day 14): 8/8
- T/C ([3]; 4 mg/kg, i.v. once on day 14): tumor regressions; also recorded: Regression
- % Body Weight Change [3, 12]: 2 ± 2%
- D Body Weight [3, 12]: 0.4 ± 0.3 g
- D Tumor Volume (mm^3) [3, 12]: −97 ± 25 mm^3
- mortalities due to treatment ([3]; single 4 mg/kg dose): No mortalities due to treatment
